The record followed here is publication PMC9529094, “Identification of natural cytochalasins as leads for neglected tropical diseases drug discovery” (PLoS ONE, 2022).

Read-outs that look alike come from different tables or passages of the source.

As a reminder, the IC50 is the concentration that gives 50% inhibition. The CC50 is the concentration giving 50% cytotoxicity.

The subject of series [1] is intracellular T. cruzi Tulahuen LacZ amastigotes. The series can be described thus: microbe, parasite or virus in culture. The class given is cell-based, Trypanosoma cruzi. The protocol: (§1) The epimastigote forms of the T. cruzi Tulahuen strain, which expresses the E. coli β-galactosidase gene lacZ [11], were grown in liver infusion tryptone (LIT) supplemented with 10% FCS (Cultilab) and 1% pen/strep (Sigma–Aldrich) at 28°C. Metacyclogenesis from epimastigotes to trypomastigotes was induced by the incubation of the epimastigotes in Grace’s insect medium (Sigma-Aldrich, 28°C) every 5 days. After 5 days, the trypomastigote forms were used to infect the HFF-1 cells. The promastigote forms of L. infantum were maintained in Schneider’s insect medium (Sigma-Aldrich) supplemented with 10% FCS (Cultilab) and 1% pen/strep (Sigma-Aldrich) at 28°C and subcultured every 6 or 7 days.
In vitro assays against T. cruzi were performed as described previously. HFF-1 human fibroblasts were seeded at 4x10^3/well in 96-well tissue culture plates in DMEM (Cultilab) without phenol red and then incubated overnight (37°C, 5% CO2). Next, trypomastigotes were added at 4x10^4/well, and the plates were incubated (37°C, 5% CO2). After 24 h, 2-fold serial dilutions of the test compounds were added at concentrations ranging from 64 to 0.12 μM, and the plates were then incubated (37°C, 5% CO2). Each compound concentration was evaluated in duplicate. All the plates included BZ (64–0.12 μM) (Sigma-Aldrich) as a positive control and untreated wells (100% growth) as a negative control. After 120 h, chlorophenol red β-D-galactopyranoside (CPRG, Sigma-Aldrich) was added to each well. The absorbance was measured at 570 nm in an automated SpectraMax 384 microplate reader (Sunnyvale, CA, USA), and the data were analysed using GraphPad Prism version 8.0 (San Diego, CA, USA) for IC50 value calculation.
(§2) The analyses were performed using GraphPad Prism version 8.0 (GraphPad Software, San Diego, CA, USA). Both the IC50 and CC50 values were calculated by adjusting the sigmoid dose-response curves, and the selectivity index (SI) values were determined by CC50/IC50 [16]. Statistical analyses were performed using one-way ANOVA followed by Dunnett’s multiple comparison test.

Series [2] is described as follows: in vitro. The format is cell-based. The note with it: human, 72 h, MTS. The protocol:
(§3) THP-1 (human monocyte cell line) cells were cultivated in RPMI medium supplemented with 10% foetal calf serum (FCS) (Cultilab, Campinas, SP, BR) and 1% penicillin and streptomycin (pen/strep—Sigma-Aldrich) at 37°C under 5% CO2, and HFF-1 (human fibroblast) and HepG2 (hepatocytes) cells were cultivated in DMEM without phenol red (Cultilab) supplemented with 10% FBS (Sigma-Aldrich) and 1% pen/strep at 37°C under 5% CO2.
The cytotoxicity of the compounds against HFF-1 fibroblasts and HepG2 hepatocytes was evaluated using the MTS tetrazolium assay (Promega, Madison, WI, USA). HFF-1 fibroblasts were seeded at 4x10^3/well in 96-well culture plates in DMEM without phenol red and incubated overnight (37°C, 5% CO2). HepG2 hepatocytes were seeded at 7x10^3/well in 96-well culture plates in DMEM (Cultilab) with supplements (10% FCS, 1% pen/strep) and incubated overnight (37°C, 5% CO2). The compounds were added in 2-fold serial dilutions at the same concentrations described before, and the plates were incubated as described before. Each compound concentration was evaluated in duplicate. All the plates included doxorubicin (DOX) (Sigma-Aldrich) as a positive control (10–0.01 μM) and untreated wells as a negative control (100% growth). After 72 h, 15 μL of MTS (Promega) was added, and the plates were incubated for 4 h. The absorbance was measured at 490 nm in an automated SpectraMax 384 microplate reader (Sunnyvale, CA, USA), and the data were analysed using GraphPad Prism version 8.0 for CC50 value calculation. The percentage of nonviable cells was determined and compared to the negative control wells (100% growth).

A short description of series [3]: in vitro. The class given is cell-based. The conditions noted are these: human; 72 h, resazurin; read-out: THP-1 CC50 (μM ± SD). The protocol: as §3
THP-1 cells were seeded at 2x10^4/well in 96-well culture plates in RPMI 1640 supplemented (10% FCS, 1% pen/strep) and incubated overnight (37°C, 5% CO2). The compounds were added in 2-fold serial dilutions (64–0.12 μM), and the plates were incubated as described before. Each compound concentration was evaluated in duplicate. All the plates included DOX (Sigma-Aldrich) as a positive control (10–0.01 μM) and untreated wells as a negative control (100% growth). After 72 h, 20 μL of resazurin (Sigma-Aldrich) was added, and the plates were incubated for 4 h. The absorbance was measured at 536 and 588 nm in an automated microplate reader SpectraMax Gemini, and the data were analysed using GraphPad Prism version 8.0 for CC50 value calculation. The percentage of nonviable cells was determined and compared to the negative control wells (100% growth).
(Alamar Blue is a resazurin reagent that responds to reducing activity.)

Series [4] deals with intracellular L. infantum amastigotes. The series is described as follows: microbe, parasite or virus in culture. The format is cell-based, Leishmania infantum. The procedure:
as §1
In the intracellular amastigote assay, THP-1 cells were seeded at 2x10^4/well (RPMI-1640, 100 μL) with phorbol 12-myristate 13-acetate (PMA) at 20 ng/mL for differentiation into macrophages. After incubation for 72 h (5% CO2, 37°C), the medium was aspirated, and late-stage L. infantum promastigotes were added (2x10^5/well, 100 μL). Following 24 h of incubation, the medium was aspirated to clear extracellular parasites, and the compounds were added in serial dilutions (2-fold) to final concentrations of 64–0.12 μM. The plates included negative controls (100% growth) and MIL (64–0.12 μM) as a positive control. After 120 h of incubation, the medium was removed, and the cells were fixed in methanol and stained with Giemsa. The average number of intracellular amastigotes per THP-1-cell was determined using an inverted microscope and a cell counter. Growth inhibition is expressed as a percentage of the average number of amastigotes per macrophage in the negative control wells. The IC50 values were obtained using GraphPad Prism version 8.0.
as §2

As to `O=C(Cn1ccnc1[N+](=O)[O-])NCc1ccccc1` [BZ, benznidazole, reference compound], the IC50 in series [1] (Trypanosoma cruzi, intracellular amastigotes, Tulahuen LacZ, HFF-1 host cells, 120 h, read-out: T. cruzi IC50 (μM ± SD)) stood at 5.2 ± 1.87 µM. Moreover, the “SI^1 (CC50 HFF-1/IC50 T. cruzi)” value in series [1] (selectivity index) was over 12.3. The CC50 in “in vitro [2]” (read-out: HFF-1 CC50 (μM ± SD)) was over 64 µM.
In the case of `COc1cccc2c1C(=O)c1c(O)c3c(c(O)c1C2=O)C[C@@](O)(C(=O)CO)C[C@@H]3O[C@H]1C[C@H](N)[C@H](O)[C@H](C)O1` [DOX, doxorubicin, reference compound], the figures for the cytotoxic concentration (CC50) in the series “in vitro [2]” (read-out: HFF-1 CC50 (μM ± SD)), in the series “in vitro [2]” (read-out: HepG2 CC50 (μM ± SD)) and in “in vitro [3]” were 0.69 ± 0.08 µM, 0.24 ± 0.06 µM and 0.97 ± 0.31 µM, respectively.
Regarding `CCCCCCCCCCCCCCCCOP(=O)([O-])OCC[N+](C)(C)C` [MIL, miltefosine, reference compound], the IC50 in series [4] (Leishmania infantum, THP-1, 120 h, intracellular amastigotes in THP-1 macrophages, 120 h, read-out: L. infantum IC50 (μM ± SD)) is 1.1 ± 0.16 µM. In addition, the “SI^2 (CC50 THP-1/IC50 L. infantum)” value in series [4] (selectivity index) is given as 53.14. The CC50 in “in vitro [3]” is 58.5 ± 5.37 µM.
